How the values were obtained:
Type in all cases: cell-based
[1] = biological target: EP2 subtype of the human PGE2 receptor (Homo sapiens, UniProt P43116); experiment: cAMP antagonism test on the human EP2 receptor (HTRF cAMP detection); details: hEP2 receptor, read-out: Antagonism hEP2 IC50
Source text: 1. Detection of Antagonism to the Human Prostaglandin E2 (Subtype EP2) Receptor Signal
(§1) The binding of PGE2 to the EP2 subtype of the human PGE2 receptor induces the activation of membrane-located adenylate cyclases and leads to the formation of cAMP. In the presence of the phosphodiesterase inhibitor IBMX, the cAMP accumulated owing to this stimulation and released by cell lysis is used in a competitive detection method. In this test, the cAMP present in the lysate competes with a fluorescence-labelled cAMP (cAMP-d2) for binding to an Eu cryptate-labelled anti-cAMP antibody.
(§2) In the absence of cellular cAMP, a maximal signal is produced, which is attributable to the binding of this cAMP-d2 molecule to the antibody. After excitation of the […] at 337 nm, there is a fluorescence resonance energy transfer (FRET) to the Eu cryptate molecules of the anti-cAMP antibody (labelled therewith), followed by a long-lasting emission signal at 665 nm (and at […]). Both signals are measured in a suitable measurement instrument with a time delay, i.e. after decay of the background fluorescence. Any increase in the low FRET signal caused by prostaglandin E2 administration (measured as well ratio change=emission665 nm/emission620 nm*10000) indicates the action of antagonists.
1.2.1. Test for Antagonism (Data Per Well of a 384-Well Plate):
(§3) To a test plate with the substance solutions already added (0.05 μl; 100% DMSO, concentration range from 0.8 nM-16.5 μM) were added 4 μl of a cAMP-d2/cell suspension (625000 cells/ml). After a 20-minute preincubation at room temperature (RT), 2 μl of a 3×PGE2 solution (1.5 nM, in PBS-IBMX) were added and incubated in the presence of the agonist for a further 60 mins at RT (volume: ˜6 μl). Next the reaction was stopped by addition of 2 μl of lysis buffer and incubated for a further 20 mins at RT before the actual measurement (volume: ˜8 μl).

[2] = biological target: EP4 subtype of the human PGE2 receptor (Homo sapiens, UniProt P35408); experiment: cAMP antagonism test on the human EP4 receptor (HTRF cAMP detection); details: selectivity towards hEP4, IC50 measured by cAMP antagonism test
Source text: 2. Detection of Antagonism to the Human Prostaglandin E2 (Subtype EP4) Receptor Signal
as §1, with “EP4” for “EP2”
as §2, with “cAMP” for “cAMP,”
2.2.1. Test for Antagonism (Data Per Well of a 384-Well Plate):
as §3, with “(312500” for “(625000”, “(0.3” for “(1.5”

human PGD receptor = biological target: T1, human PGD receptor (Homo sapiens, UniProt Q13258); experiment: cAMP antagonism test on the human prostaglandin D receptor (HTRF cAMP detection); details: selectivity towards hDP, IC50 measured by cAMP antagonism test
T1 sequence (Q13258 1-359): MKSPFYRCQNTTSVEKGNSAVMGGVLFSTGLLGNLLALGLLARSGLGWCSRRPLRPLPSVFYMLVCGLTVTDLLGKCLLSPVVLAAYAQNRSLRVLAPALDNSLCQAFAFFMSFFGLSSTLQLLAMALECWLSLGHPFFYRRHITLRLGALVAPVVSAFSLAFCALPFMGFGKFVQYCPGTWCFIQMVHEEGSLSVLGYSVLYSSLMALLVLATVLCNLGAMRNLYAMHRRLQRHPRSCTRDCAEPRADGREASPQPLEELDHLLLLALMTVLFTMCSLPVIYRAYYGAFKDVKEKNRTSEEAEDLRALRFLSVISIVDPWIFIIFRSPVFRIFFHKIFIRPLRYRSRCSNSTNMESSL
Source text: 3. Detection of Antagonism to the Human Prostaglandin D Receptor Signal
as §1, with “of prostaglandin D2” for “of PGE2”, “the” for “the EP2 subtype of the”, “human PGD” for “human PGE2”
as §2
3.2.1. Test for Antagonism (Data Per Well of a 384-Well Plate):
as §3, with “3×PGD2” for “3×PGE2”, “(6” for “(1.5”, “30” for “60”

EP2 subtype of the human PGE2 receptor, sequence (P43116 whole entry): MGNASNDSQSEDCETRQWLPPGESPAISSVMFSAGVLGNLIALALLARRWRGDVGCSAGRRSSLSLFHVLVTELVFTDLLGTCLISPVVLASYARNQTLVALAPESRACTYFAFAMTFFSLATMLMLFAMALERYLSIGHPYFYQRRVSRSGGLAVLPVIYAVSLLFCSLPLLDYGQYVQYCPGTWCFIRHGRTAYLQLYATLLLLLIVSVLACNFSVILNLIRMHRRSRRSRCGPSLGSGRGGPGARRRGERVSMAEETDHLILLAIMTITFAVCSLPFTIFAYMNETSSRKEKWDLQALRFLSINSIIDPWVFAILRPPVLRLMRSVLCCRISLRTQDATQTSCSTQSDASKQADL
EP4 subtype of the human PGE2 receptor, sequence (P35408 whole entry): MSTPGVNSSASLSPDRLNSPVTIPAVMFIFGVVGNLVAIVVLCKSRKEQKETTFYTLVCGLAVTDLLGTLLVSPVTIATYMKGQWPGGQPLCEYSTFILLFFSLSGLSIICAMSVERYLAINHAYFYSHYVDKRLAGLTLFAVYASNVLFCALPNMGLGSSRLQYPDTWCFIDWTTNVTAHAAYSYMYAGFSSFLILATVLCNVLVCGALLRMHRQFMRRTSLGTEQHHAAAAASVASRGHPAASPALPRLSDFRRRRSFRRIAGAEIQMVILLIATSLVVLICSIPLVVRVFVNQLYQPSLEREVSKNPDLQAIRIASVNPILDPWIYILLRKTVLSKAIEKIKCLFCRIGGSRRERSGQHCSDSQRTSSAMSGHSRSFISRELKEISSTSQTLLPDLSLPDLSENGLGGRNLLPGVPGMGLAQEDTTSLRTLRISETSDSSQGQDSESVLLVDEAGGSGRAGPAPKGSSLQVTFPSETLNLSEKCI

Row | Structure (SMILES) | IC50 [1] [nM] | Selectivity hEP2/hEP4 [2] | Selectivity hEP2/hDP (human PGD receptor)
1 | COCCNC(=O)c1ccc2nn(CC3CCN(C(=O)c4ccc(-c5ccno5)cc4)CC3)cc2c1C [Example 37, N-(2-methoxyethyl)-4-methyl-2-({1-[4-(isoxazol-5-yl)-benzoyl]piperidin-4-yl}methyl)-2H-indazol-5-carboxamide] | 104 | xxx (xxx > 100) | xxx (xxx > 100)
2 | Cc1c(C(=O)NCCOC(C)C)ccc2nn(CC3CCN(C(=O)c4ccc(C(F)(F)F)cc4)CC3)cc12 [Example 99, N-(2-isopropoxy-ethyl)-4-methyl-2-({1-[4-(trifluoro-methyl)benzoyl]-piperidin-4-yl}-methyl)-2H-indazol-5-carboxamide] | 10.4 | xxx (xxx > 100) | xxx (xxx > 100)
3 | Cc1c(C(=O)NCCOCC(F)(F)F)ccc2nn(CC3CCN(C(=O)c4ccc(C5CC5)cc4)CC3)cc12 [Example 95, 2-{[1-(4-cyclo-propylbenzoyl)-piperidin-4-yl]-methyl}-4-methyl-N-[2-(2,2,2-tri-fluoroethoxy)ethyl]-2H-indazol-5-carboxamide] | 6.18 | xxx (xxx > 100) | xxx (xxx > 100)
4 | Cc1c(C(=O)NCCO)ccc2nn(CC3CCN(C(=O)c4ccc(Cl)cc4)CC3)cc12 [Example 252, 2-{[1-(4-chlorobenzoyl)piperidin-4-yl]methyl}-N-(2-hydroxyethyl)-4-methyl-2H-indazol-5-carboxamide] | 295 | xx (xx: 10-100) | xx (xx: 10-100)
5 | Cc1c(C(=O)NCCN2CCOCC2)ccc2nn(CC3CCN(C(=O)c4ccc(C(F)(F)F)cc4F)CC3)cc12 [Example 58, 2-({1-[2-fluoro-4-(trifluoromethyl)benzoyl]piperidin-4-yl}methyl)-4-methyl-N-(2-morpholinoethyl)-2H-indazol-5-carboxamide] | 1080 | xx (xx: 10-100) | xx (xx: 10-100)
6 | COCCNC(=O)c1ccc2nn(CC3CN(C(=O)c4cc5cc(F)ccc5n4C)C3)cc2c1C [Example 170, 2-({1-[(5-fluoro-1-methyl-1H-indol-2-yl)carbonyl]azetidin-3-yl}methyl)-N-(2-methoxyethyl)-4-methyl-2H-indazol-5-carboxamide] | 4.25 | xxx (xxx > 100) | xxx (xxx > 100)
7 | CCOc1c(C(=O)NCCOC)ccc2nn(CC3CCN(C(=O)c4ccc(Cl)cc4)CC3)cc12 [Example 274, 2-{[1-(4-chlorobenzoyl)piperidin-4-yl]methyl}-4-ethoxy-N-(2-methoxyethyl)-2H-indazol-5-carboxamide] | 44.6 | xxx (xxx > 100) | xxx (xxx > 100)
8 | CCOc1c(C(=O)NCCOC)ccc2nn(CC3CCN(C(=O)c4ccc(S(F)(F)(F)(F)F)cc4)CC3)cc12 [Example 275, 4-ethoxy-N-(2-methoxyethyl)-2-({1-[4-(pentafluoro-λ^6-sulphanyl)benzoyl]-piperidin-4-yl}methyl)-2H-indazol-5-carboxamide] | 34.5 | xxx (xxx > 100) | xxx (xxx > 100)
9 | Cc1cc2nn(CC3CCN(C(=O)c4ccc(C(F)(F)F)cc4)CC3)cc2cc1C(=O)NCCN1CCOCC1 [Example 79, 6-methyl-N-(2-morpholinoethyl)-2-({1-[4-(trifluoro-methyl)benzoyl]-piperidin-4-yl}-methyl)-2H-indazol-5-carboxamide] | 125 | xxx (xxx > 100) | xxx (xxx > 100)

More lines, now with the values ahead:

Row | IC50 [1] [nM] | Selectivity hEP2/hEP4 [2] | Selectivity hEP2/hDP (human PGD receptor) | Structure (SMILES)
10 | 30.7 | xxx (xxx > 100) | xxx (xxx > 100) | Cc1cc2nn(CC3CN(C(=O)c4ccc(S(F)(F)(F)(F)F)cc4)C3)cc2cc1C(=O)NCCN1CCOCC1 [Example 280, 6-methyl-N-(2-morpholinoethyl)-2-({1-[4-(pentafluoro-λ^6-sulphanyl)benzoyl]-azetidin-3-yl}methyl)-2H-indazol-5-carboxamide]
11 | 8.19 | xxx (xxx > 100) | xxx (xxx > 100) | Cc1c(C(=O)NCC2CC2)ccc2nn(CC3CCN(C(=O)c4ccc(Oc5ccc(C(F)(F)F)cc5)cc4)CC3)cc12 [Example 406, N-(cyclopropylmethyl)-4-methyl-2-[(1-{4-[4-(trifluoromethyl)phenoxy]-benzoyl}piperidin-4-yl)methyl]-2H-indazol-5-carboxamide]
12 | 23 | xxx (xxx > 100) | xxx (xxx > 100) | COCCNC(=O)c1cc2cn(CC3CCN(C(=O)c4cn(C)c5ccccc45)CC3)nc2cc1C [Example 281, N-(2-methoxyethyl)-6-methyl-2-({1-[(1-methyl-1H-indol-3-yl)carbonyl]-piperidin-4-yl}methyl)-2H-indazol-5-carboxamide]
13 | 42.6 | xxx (xxx > 100) | xxx (xxx > 100) | Cc1c(C(=O)NCC(F)(F)F)ccc2nn(CC3CCN(C(=O)c4cc5ccccc5n4C)CC3)cc12 [Example 290, 4-methyl-2-({1-[(1-methyl-1H-indol-2-yl)carbonyl]piperidin-4-yl}methyl)-N-(2,2,2-trifluoroethyl)-2H-indazol-5-carboxamide]
14 | 20.2 | xxx (xxx > 100) | xxx (xxx > 100) | Cc1c(C(=O)NCC(C)C)ccc2nn(CC3CCN(C(=O)c4ccc(Oc5ccc(C(F)(F)F)cc5)cc4)CC3)cc12 [Example 404, N-isobutyl-4-methyl-2-[(1-{4-[4-(trifluoromethyl)phenoxy]benzoyl}piperidin-4-yl)methyl]-2H-indazol-5-carboxamide]
